Measured values published in ChEMBL document CHEMBL5352402, “Discovery of novel non-nucleoside inhibitors with high potency and selectivity for DNA methyltransferase 3A” (Eur J Med Chem, 2022).
Blank lines part the entries; values can stand above or below the molecule they belong to.

Assays:
[1] = target: T1, DNMT3A2/3L complex (Homo sapiens) (UniProt Q9Y6K1+Q9UJW3); assay: (§1) Inhibition of N-terminal His-tagged human DNMT3A (623 to 912 residues)/N-terminal GST-tagged human DNMT3L (160 to 387 residues) co-expressed in baculovirus infected Sf9 cells assessed as DNA methylation using DNA oligonucleotide IDT-01 as substrate at 100 uM preincubated for 15 mins followed by substrate addition in presence of [3H]-SAM and measured after 4 hrs by radioactive methylation assay; settings: time 255.0 min
T1 sequence (Q9UJW3 whole entry, looked up, the tested form may be a part): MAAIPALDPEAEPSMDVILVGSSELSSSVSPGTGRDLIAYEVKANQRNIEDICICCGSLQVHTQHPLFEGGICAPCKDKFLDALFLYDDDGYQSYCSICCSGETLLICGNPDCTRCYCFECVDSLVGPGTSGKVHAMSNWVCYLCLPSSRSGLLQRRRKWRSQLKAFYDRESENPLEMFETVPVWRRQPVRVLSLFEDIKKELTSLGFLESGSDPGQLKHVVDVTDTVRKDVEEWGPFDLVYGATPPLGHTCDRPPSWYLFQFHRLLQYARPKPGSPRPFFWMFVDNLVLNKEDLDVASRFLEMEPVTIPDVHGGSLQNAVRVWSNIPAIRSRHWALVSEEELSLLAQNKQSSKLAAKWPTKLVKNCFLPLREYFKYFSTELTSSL
T1 sequence (Q9Y6K1 whole entry, looked up, the tested form may be a part): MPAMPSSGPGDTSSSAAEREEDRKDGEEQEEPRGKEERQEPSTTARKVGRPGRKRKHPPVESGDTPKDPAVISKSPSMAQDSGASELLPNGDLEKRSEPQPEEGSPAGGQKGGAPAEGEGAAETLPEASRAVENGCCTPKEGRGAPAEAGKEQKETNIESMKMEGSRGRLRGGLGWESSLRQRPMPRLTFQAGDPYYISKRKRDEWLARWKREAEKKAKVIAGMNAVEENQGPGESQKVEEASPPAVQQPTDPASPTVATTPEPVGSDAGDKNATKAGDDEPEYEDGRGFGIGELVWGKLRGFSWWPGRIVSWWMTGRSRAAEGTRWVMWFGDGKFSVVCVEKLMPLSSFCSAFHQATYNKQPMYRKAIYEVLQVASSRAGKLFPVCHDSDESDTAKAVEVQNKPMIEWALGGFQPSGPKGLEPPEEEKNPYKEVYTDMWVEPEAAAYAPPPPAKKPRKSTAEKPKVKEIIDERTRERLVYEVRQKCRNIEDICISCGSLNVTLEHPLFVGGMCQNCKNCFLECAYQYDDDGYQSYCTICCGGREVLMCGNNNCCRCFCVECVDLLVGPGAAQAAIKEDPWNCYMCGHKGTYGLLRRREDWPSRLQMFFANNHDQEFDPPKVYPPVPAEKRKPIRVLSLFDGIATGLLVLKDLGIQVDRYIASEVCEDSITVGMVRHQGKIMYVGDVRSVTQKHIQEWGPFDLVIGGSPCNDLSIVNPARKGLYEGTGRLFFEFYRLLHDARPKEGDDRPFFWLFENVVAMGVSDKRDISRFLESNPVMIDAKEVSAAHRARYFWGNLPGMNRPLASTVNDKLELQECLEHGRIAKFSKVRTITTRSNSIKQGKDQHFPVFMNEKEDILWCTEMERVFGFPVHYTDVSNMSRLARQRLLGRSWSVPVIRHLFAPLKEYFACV

DNMT3A2/3L complex = DNMT3A2/3L complex (Homo sapiens, UniProt Q9Y6K1); assay: as §1, with “substrate” for “substrate at 100 uM”
Sequence of DNMT3A2/3L complex (Q9Y6K1 whole entry, looked up, one chain of several): as the sequence (Q9Y6K1 whole entry, looked up, the tested form may be a part) above

[2] = target: T1, DNMT3A2/3L complex (Homo sapiens); assay: as §1, with “10” for “100”; settings: time 255.0 min
[3] = target: DNA (cytosine-5)-methyltransferase 1 (Homo sapiens, UniProt P26358); assay: Inhibition of N-terminal GST-tagged full-length recombinant human DNMT1 assessed as DNA methylation using pdI-pdC DNA as substrate preincubated for 15 mins followed by substrate addition in presence of [3H]-SAM and measured after 150 mins by radioactive methylation assay
Sequence of DNA (cytosine-5)-methyltransferase 1 (P26358 whole entry): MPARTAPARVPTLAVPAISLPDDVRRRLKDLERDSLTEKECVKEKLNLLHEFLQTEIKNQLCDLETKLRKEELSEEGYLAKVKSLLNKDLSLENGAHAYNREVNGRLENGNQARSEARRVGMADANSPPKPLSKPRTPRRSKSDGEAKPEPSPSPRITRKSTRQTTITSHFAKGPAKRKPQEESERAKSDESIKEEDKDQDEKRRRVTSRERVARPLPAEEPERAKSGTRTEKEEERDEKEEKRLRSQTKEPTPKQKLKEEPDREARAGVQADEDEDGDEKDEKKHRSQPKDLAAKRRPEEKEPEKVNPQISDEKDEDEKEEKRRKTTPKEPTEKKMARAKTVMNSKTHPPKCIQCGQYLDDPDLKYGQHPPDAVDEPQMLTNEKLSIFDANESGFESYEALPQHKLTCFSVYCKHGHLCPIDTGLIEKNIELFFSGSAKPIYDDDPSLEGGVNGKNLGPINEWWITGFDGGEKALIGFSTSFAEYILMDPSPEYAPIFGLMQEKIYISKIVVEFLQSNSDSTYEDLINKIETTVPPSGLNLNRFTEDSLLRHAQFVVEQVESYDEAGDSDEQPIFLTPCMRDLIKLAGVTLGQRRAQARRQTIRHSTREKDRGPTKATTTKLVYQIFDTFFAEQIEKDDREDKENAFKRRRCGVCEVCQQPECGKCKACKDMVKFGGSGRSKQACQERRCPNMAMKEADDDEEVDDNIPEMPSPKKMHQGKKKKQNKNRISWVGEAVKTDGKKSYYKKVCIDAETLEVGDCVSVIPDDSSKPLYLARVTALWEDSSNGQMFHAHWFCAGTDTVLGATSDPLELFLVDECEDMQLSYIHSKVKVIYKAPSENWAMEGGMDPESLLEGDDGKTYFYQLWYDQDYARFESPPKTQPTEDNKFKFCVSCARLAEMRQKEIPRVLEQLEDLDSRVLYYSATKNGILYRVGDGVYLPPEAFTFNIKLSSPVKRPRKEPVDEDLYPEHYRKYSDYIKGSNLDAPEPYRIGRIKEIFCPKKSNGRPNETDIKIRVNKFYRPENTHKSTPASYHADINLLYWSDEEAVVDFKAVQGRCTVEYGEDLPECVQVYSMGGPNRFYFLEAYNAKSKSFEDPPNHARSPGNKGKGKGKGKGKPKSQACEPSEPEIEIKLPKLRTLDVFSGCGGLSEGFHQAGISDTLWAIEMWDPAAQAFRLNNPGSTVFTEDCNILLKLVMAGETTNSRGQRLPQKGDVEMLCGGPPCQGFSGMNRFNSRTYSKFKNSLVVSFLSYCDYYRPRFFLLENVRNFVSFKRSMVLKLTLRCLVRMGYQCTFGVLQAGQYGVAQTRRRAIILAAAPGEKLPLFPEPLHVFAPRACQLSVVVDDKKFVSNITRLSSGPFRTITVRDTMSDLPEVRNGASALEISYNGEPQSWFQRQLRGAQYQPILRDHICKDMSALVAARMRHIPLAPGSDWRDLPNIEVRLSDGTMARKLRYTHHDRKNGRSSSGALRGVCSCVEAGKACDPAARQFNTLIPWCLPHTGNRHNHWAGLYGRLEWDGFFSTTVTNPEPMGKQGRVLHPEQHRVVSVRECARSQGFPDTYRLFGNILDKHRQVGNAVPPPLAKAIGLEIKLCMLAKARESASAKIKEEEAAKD

DNMT3B = DNMT3B (Homo sapiens, UniProt Q9UBC3); assay: as §1, with “DNMT3B (564” for “DNMT3A (623”, “853” for “912”, “substrate” for “substrate at 100 uM”
[4] = target: T2, Histone-lysine N-methyltransferase EHMT2 (Homo sapiens, UniProt Q96KQ7); assay: Inhibition of N-terminal GST-tagged human G9a expressed in baculovirus infected Sf9 cells using biotinylated histone H3 peptide as substrate preincubated for 15 mins followed by substrate addition in presence of SAM and measured after 60 mins by AlphaLISA assay
T2 sequence (Q96KQ7 whole entry): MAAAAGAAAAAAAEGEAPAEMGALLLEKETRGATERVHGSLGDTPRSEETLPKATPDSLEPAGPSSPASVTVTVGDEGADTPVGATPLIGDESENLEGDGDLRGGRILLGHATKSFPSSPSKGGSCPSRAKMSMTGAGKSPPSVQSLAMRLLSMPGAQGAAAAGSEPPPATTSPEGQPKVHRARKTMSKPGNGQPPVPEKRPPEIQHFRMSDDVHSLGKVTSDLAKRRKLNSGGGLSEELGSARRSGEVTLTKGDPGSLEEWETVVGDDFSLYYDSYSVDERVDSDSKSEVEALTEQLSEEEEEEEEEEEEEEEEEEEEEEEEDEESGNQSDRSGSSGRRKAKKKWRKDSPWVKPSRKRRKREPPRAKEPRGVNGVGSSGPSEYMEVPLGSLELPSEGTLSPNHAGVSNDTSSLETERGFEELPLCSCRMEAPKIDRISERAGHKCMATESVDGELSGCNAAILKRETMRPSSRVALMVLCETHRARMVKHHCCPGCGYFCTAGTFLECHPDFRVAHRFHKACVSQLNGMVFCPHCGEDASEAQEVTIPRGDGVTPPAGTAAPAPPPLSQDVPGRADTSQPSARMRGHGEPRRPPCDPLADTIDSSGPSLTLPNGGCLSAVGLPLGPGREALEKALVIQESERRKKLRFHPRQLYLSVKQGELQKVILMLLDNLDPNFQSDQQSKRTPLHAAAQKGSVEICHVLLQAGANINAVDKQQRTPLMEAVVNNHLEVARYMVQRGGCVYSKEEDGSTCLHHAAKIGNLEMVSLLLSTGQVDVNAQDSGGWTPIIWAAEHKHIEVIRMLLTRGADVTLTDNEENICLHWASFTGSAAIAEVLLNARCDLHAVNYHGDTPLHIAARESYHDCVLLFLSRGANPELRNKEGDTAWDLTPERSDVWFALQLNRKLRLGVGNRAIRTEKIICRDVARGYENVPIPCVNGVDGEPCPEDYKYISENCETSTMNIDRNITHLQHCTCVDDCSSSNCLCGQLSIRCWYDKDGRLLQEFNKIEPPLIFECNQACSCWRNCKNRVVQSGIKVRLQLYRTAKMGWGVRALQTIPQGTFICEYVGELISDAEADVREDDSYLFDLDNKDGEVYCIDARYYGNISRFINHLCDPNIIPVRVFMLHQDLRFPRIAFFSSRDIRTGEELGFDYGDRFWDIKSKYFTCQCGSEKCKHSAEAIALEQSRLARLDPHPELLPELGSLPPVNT

THP-1 [5] = assay: Antiproliferative activity against human THP-1 cells assessed as inhibition of cell proliferation at 0.1 to 100 uM incubated upto 72 hrs by MTT assay; format: functional, cell-based; settings: dose 0.1-100 µM
HCT-116 [6] = assay: Antiproliferative activity against human HCT-116 cells assessed as inhibition of cell proliferation at 0.1 to 100 uM incubated upto 72 hrs by MTT assay; format: functional, cell-based; settings: dose 0.1-100 µM
U-937 [7] = assay: Antiproliferative activity against human U-937 cells assessed as inhibition of cell proliferation at 0.1 to 100 uM incubated upto 72 hrs by MTT assay; format: functional, cell-based; settings: dose 0.1-100 µM
K562 [8] = assay: Antiproliferative activity against human K562 cells assessed as inhibition of cell proliferation at 0.1 to 100 uM incubated upto 72 hrs by MTT assay; format: functional, cell-based; settings: dose 0.1-100 µM
A549 [9] = assay: Antiproliferative activity against human A549 cells assessed as inhibition of cell proliferation at 0.1 to 100 uM incubated upto 72 hrs by MTT assay; format: functional, cell-based; settings: dose 0.1-100 µM
DU-145 [10] = assay: Antiproliferative activity against human DU-145 cells assessed as inhibition of cell proliferation at 0.1 to 100 uM incubated upto 72 hrs by MTT assay; format: functional, cell-based; settings: dose 0.1-100 µM
THP-1 [11] = assay: Antiproliferative activity against human THP-1 cells assessed as inhibition of cell proliferation incubated for 72 hrs by MTT assay; format: functional, cell-based; settings: THP-1, 72 h
K562 [12] = assay: Antiproliferative activity against human K562 cells assessed as inhibition of cell proliferation incubated for 72 hrs by MTT assay; format: functional, cell-based; settings: K562, 72 h
DU-145 [13] = assay: Antiproliferative activity against human DU-145 cells assessed as inhibition of cell proliferation incubated for 72 hrs by MTT assay; format: functional, cell-based; settings: DU-145, 72 h
[14] = Cytotoxicity activity against human PBMC cells assessed as inhibition of cell proliferation incubated for 72 hrs by MTT assay; format: toxicity, cell-based
THP-1 [15] = assay: Antiproliferative activity against human THP-1 cells assessed as inhibition of cell proliferation at 100 uM incubated for 24 to 72 hrs by MTT assay; format: functional, cell-based; settings: time 24-72 hrs, TDE = time-dependent effect
HCT-116 [16] = assay: Antiproliferative activity against human HCT-116 cells assessed as inhibition of cell proliferation at 100 uM incubated for 24 to 72 hrs by MTT assay; format: functional, cell-based; settings: time 24-72 hrs, TDE = time-dependent effect
U-937 [17] = assay: Antiproliferative activity against human U-937 cells assessed as inhibition of cell proliferation at 100 uM incubated for 24 to 72 hrs by MTT assay; format: functional, cell-based; settings: time 24-72 hrs, TDE = time-dependent effect
K562 [18] = assay: Antiproliferative activity against human K562 cells assessed as inhibition of cell proliferation at 100 uM incubated for 24 to 72 hrs by MTT assay; format: functional, cell-based; settings: time 24-72 hrs, TDE = time-dependent effect
A549 [19] = assay: Antiproliferative activity against human A549 cells assessed as inhibition of cell proliferation at 100 uM incubated for 24 to 72 hrs by MTT assay; format: functional, cell-based; settings: time 24-72 hrs, TDE = time-dependent effect
DU-145 [20] = assay: Antiproliferative activity against human DU-145 cells assessed as inhibition of cell proliferation at 100 uM incubated for 24 to 72 hrs by MTT assay; format: functional, cell-based; settings: time 24-72 hrs, TDE = time-dependent effect
HCT-116 [21] = assay: cells; settings: Homo sapiens, HCT-116, 72 h
Description: Antiproliferative activity against human HCT-116 cells assessed as inhibition of cell proliferation incubated for 72 hrs by MTT assay

U-937 [22] = assay: cells; settings: Homo sapiens, U-937, 72 h
Description: Antiproliferative activity against human U-937 cells assessed as inhibition of cell proliferation incubated for 72 hrs by MTT assay

A549 [23] = assay: cells; settings: Homo sapiens, A549, 72 h
Description: Antiproliferative activity against human A549 cells assessed as inhibition of cell proliferation incubated for 72 hrs by MTT assay

SMILES: Cc1oc2ncn(CCCN3CCOCC3)c(=O)c2c1C(=O)Nc1ccc(S(N)(=O)=O)nc1
inhibition [1]: 54.2%
inhibition [2]: 36%

SMILES: Cc1sc2ncn(CCN3CCOCC3)c(=O)c2c1C(=O)Nc1ccc(S(N)(=O)=O)nc1
inhibition [1]: 40.4%
IC50 (DNMT3A2/3L complex): > 100 µM
inhibition [2]: 8.3%

SMILES: Cc1oc2ncn(Cc3ccncc3)c(=O)c2c1C(=O)Nc1ccc(S(N)(=O)=O)nc1
inhibition [1]: 18.1%

SMILES: Cc1oc2ncn(CCN(C)C)c(=O)c2c1C(=O)Nc1ccc(C#N)cc1
inhibition [1]: 24%
inhibition [2]: 21.7%

SMILES: Cc1oc2ncn(Cc3cccnc3)c(=O)c2c1C(=O)Nc1ccc(S(N)(=O)=O)nc1
inhibition [1]: 48%
IC50 (DNMT3A2/3L complex): > 100 µM
inhibition [2]: 11.3%

Continued, in another order:

inhibition [1]: 89.8%
IC50 (DNMT3A2/3L complex): 1.3 µM
inhibition [2]: 66%
IC50 [3]: 15.9 µM
IC50 (DNMT3B): 64.7 µM
IC50 [4]: 14.9 µM
IC50 (THP-1 [11]): 4.2 µM
IC50 (K562 [12]): 5.4 µM
IC50 (DU-145 [13]): 4.1 µM
IC50 (HCT-116 [21]): 1.6 µM
IC50 (U-937 [22]): 3.5 µM
IC50 (A549 [23]): 8.5 µM
SMILES: Cc1oc2ncn(CCCN3CCCCC3)c(=O)c2c1C(=O)Nc1ccc(S(N)(=O)=O)nc1
Activity (THP-1 [5]): Dose-Dependent Effect
Activity (HCT-116 [6]): Dose-Dependent Effect
Activity (U-937 [7]): Dose-Dependent Effect
Activity (K562 [8]): Dose-Dependent Effect
Activity (A549 [9]): Dose-Dependent Effect
Activity (DU-145 [10]): Dose-Dependent Effect
IC50 at 72 h [14]: 144 µM
Activity (THP-1 [15]): Tde
Activity (HCT-116 [16]): Tde
Activity (U-937 [17]): Tde
Activity (K562 [18]): Tde
Activity (A549 [19]): Tde
Activity (DU-145 [20]): Tde

inhibition [1]: 36%
inhibition [2]: 36.4%
SMILES: Cc1oc2ncn(CCCN(C)C)c(=O)c2c1C(=O)Nc1ccc(C#N)cc1

inhibition [1]: 57.5%
inhibition [2]: 51.3%
SMILES: Cc1sc2ncn(CCCN(C)C)c(=O)c2c1C(=O)Nc1ccc(S(N)(=O)=O)nc1

inhibition [1]: 94.1%
IC50 (DNMT3A2/3L complex): 1.8 µM
inhibition [2]: 69.6%
IC50 [3]: 9.6 µM
IC50 (DNMT3B): 120 µM
IC50 [4]: 308 µM
IC50 (THP-1 [11]): 3.3 µM
IC50 (K562 [12]): 6.5 µM
IC50 (DU-145 [13]): 2.8 µM
IC50 (HCT-116 [21]): 2.1 µM
IC50 (U-937 [22]): 4.2 µM
IC50 (A549 [23]): 15.7 µM
SMILES: Cc1oc2ncn(CCCN3CCCC3)c(=O)c2c1C(=O)Nc1ccc(S(N)(=O)=O)nc1
Activity (THP-1 [5]): Dose-Dependent Effect
Activity (HCT-116 [6]): Dose-Dependent Effect
Activity (U-937 [7]): Dose-Dependent Effect
Activity (K562 [8]): Dose-Dependent Effect
Activity (A549 [9]): Dose-Dependent Effect
Activity (DU-145 [10]): Dose-Dependent Effect
IC50 at 72 h [14]: 161 µM
Activity (THP-1 [15]): Tde
Activity (HCT-116 [16]): Tde
Activity (U-937 [17]): Tde
Activity (K562 [18]): Tde
Activity (A549 [19]): Tde
Activity (DU-145 [20]): Tde

inhibition [1]: 28.4%
inhibition [2]: 22.7%
SMILES: Cc1oc2ncn(CCCN3CCOCC3)c(=O)c2c1C(=O)Nc1ccc(C#N)cc1

inhibition [1]: 28.6%
SMILES: Cc1oc2ncn(C(C)c3ccccc3)c(=O)c2c1C(=O)Nc1ccc(S(N)(=O)=O)nc1 (stereo not drawn)
